Measured values reported in patent US20240408069A1, “NON-INVASIVE MONITORING OF LIVER DISEASE TREATMENT” (INVENTIVA, priority 2023, published 2024).

What was measured:
[1] = tested on: adult patients with highly active, non-cirrhotic NASH; conditions: cited from earlier work
[2] = tested on: adult patients with highly active, non-cirrhotic NASH; assay: NATIVE phase 2b trial, histological response on liver biopsy after 24 weeks of lanifibranor; type: in vivo, human
Text: Patients were eligible for inclusion if they were 18 years of age or older and had non-cirrhotic NASH (the diagnosis of which required a Steatosis, Activity, Fibrosis [SAF] grade of 1 or higher for steatosis, hepatocellular ballooning and lobular inflammation on liver biopsy). A score of 3 or higher on the SAF-A (the activity part of the SAF scoring system that incorporates the scores for hepatocellular ballooning and lobular inflammation) was also a criterion for eligibility. Patients with stage F4 fibrosis, classified according to the criteria of both the SAF and NASH Clinical Research Network (NASH CRN) were excluded from the study. Patients were randomly assigned in a 1:1:1 ratio to receive 800 or 1200 mg lanifibranor or placebo once daily for 24 weeks. Liver biopsy was obtained at baseline and at the end of treatment. The primary end point of the NATIVE study was defined as a decrease of at least 2 points from baseline to Week 24 (end of treatment) in the SAF-A score and no worsening of fibrosis. Secondary histologic end points included resolution of NASH (defined as a ballooning grade of 0 and a lobular inflammation grade of ≤1) and no worsening of fibrosis; improvement in fibrosis of at least 1 stage and no worsening of NASH (i.e., no worsening in either steatosis, ballooning, or lobular inflammation); Nonalcoholic Fatty Liver Disease Activity Score (NAS) improvement (defined as a decrease of >2 points from baseline to week 24 in the NAS) and no worsening of fibrosis; resolution of NASH and an improvement in fibrosis stage of at least 1 (as a composite end point); change in scores for the components of the SAF and NASH CRN scoring system (steatosis, activity, inflammation, ballooning, and fibrosis); and change in the modified Ishak score. Non-histologic secondary endpoints included changes in a panel of serum biomarkers related to metabolism, inflammation tissue injury and fibrosis. Patients receiving lanifibranor 800 or 1200 mg per day were pooled and those with pre- and post-treatment liver biopsies were selected (n=142). Post-treatment biopsies were considered if they occurred within 14 days following last lanifibranor intake. The following histological endpoint according to NASH-CRN criteria was considered: NASH resolution and fibrosis improvement of at least 1 stage (E1). In the NATIVE trial, from February 2017 through July 2019, 247 patients were randomly assigned to receive 1200 mg of lanifibranor (N=83), 800 mg of lanifibranor (N=83), or placebo (N=81) orally once daily for 6 months. A total of 228 patients completed the trial, 77 in each lanifibranor group and 74 in the placebo group. Reasons for discontinuation of the trial regimen have been reported elsewhere. Finally, among the 154 patients treated with lanifibranor at both doses, 142 patients (N=70 and N=72 patients treated with 800 or 1200 mg per day, respectively) presented with pre- and post-treatment liver biopsies within the time frame required for the present work and were included in the analysis population for signature development.

## O=C(O)CCCc1cc2cc(Cl)ccc2n1S(=O)(=O)c1ccc2ncsc2c1 [lanifibranor, 4-[1-(1,3-benzothiazol-6-ylsulfonyl)-5-chloroindol-2-yl] butanoic acid]
[1]; daily dose of 1200 mg, versus placebo
  Percentage of patients with a decrease of at least 2 points in SAF-A score without worsening of fibrosis, compared to placebo: significantly higher
[1]; lanifibranor groups versus placebo, NASH-CRN
  Secondary endpoints (NASH resolution and fibrosis improvement, NASH resolution without worsening of fibrosis, improvement of fibrosis without worsening of NASH), compared to placebo: more favorable than placebo
[2]; 800 mg once daily, N=70
  Resolution of NASH and improvement of liver fibrosis ≥1 Stage (E1), number of patients reaching endpoint: 17 patients
  Resolution of NASH and improvement of liver fibrosis ≥1 Stage (E1), patients reaching endpoint: 24%
[2]; 1200 mg once daily, N=72
  Resolution of NASH and improvement of liver fibrosis ≥1 Stage (E1), number of patients reaching endpoint: 25 patients
  Resolution of NASH and improvement of liver fibrosis ≥1 Stage (E1), patients reaching endpoint: 35%
[2]; pooled lanifibranor group (800 or 1200 mg once daily), N=142
  Resolution of NASH and improvement of liver fibrosis ≥1 Stage (E1), number of patients reaching endpoint: 42 patients
[2]; pooled lanifibranor group (800 or 1200 mg once daily), N=142 with pre- and post-treatment biopsies
  Resolution of NASH and improvement of liver fibrosis ≥1 Stage (E1), patients reaching endpoint: 30%
